Five compounds from patent publication US7754768B2, “Methods and compositions for modulating alpha adrenergic receptor activity” (Allergan, Inc., priority 2000, dated 2010) can be followed below.

Series [1] has as its system rat spinal nerve ligation allodynia model. Briefly: Rat spinal nerve ligation allodynia model (chronic pain, von Frey tactile allodynia). As to conditions: 30 minutes after administration. The series is classed as in vivo. How it is done:
(§1) The physiological activity of these compounds was tested using four models: a rat locomotor model to assess sedation, an assay of cardiovascular activity in monkeys, a rat thermal paw withdrawal assay (Dirig et al., J. Neurosci. Methods 76:183-191 (1997) to test the alleviation of acute pain, and the rat spinal nerve ligation allodynia model (Kim and Chung, Pain 50:355-363 (1992) to assess the alleviation of neuropathic pain and central sensitization typical of chronic pain. As is known to those of skill in the art, these tests are established pharmacological methods for determining sedation, cardiovascular effects, acute pain and chronic pain, respectively, of pharmaceutical agents.
A model for chronic pain (in particular peripheral neuropathy such as causalgia) involves the surgical ligation of the L5 (and optionally the L6) spinal nerves on one side in experimental animals. Rats recovering from the surgery gain weight and display a level of general activity similar to that of normal rats. However, these rats develop abnormalities of the foot, wherein the hindpaw is moderately everted and the toes are held together. More importantly, the hindpaw on the side affected by the surgery appears to become sensitive to pain from low-threshold mechanical stimuli, such as that producing a faint sensation of touch in a human, within about 1 week following surgery. This sensitivity to normally non-painful touch is called “tactile allodynia” and lasts for at least two months. The response includes lifting the affected hindpaw to escape from the stimulus, licking the paw and holding it in the air for many seconds. None of these responses is normally seen in the control group.
Rats are anesthetized before surgery. The surgical site is shaved and prepared either with betadine or Novacaine. Incision is made from the thoracic vertebra X111 down toward the sacrum. Muscle tissue is separated from the spinal vertebra (left side) at the L4-S2 levels. The L6 vertebra is located and the transverse process is carefully removed with a small rongeur to expose the L4-L6 spinal nerves. The L5 and L6 spinal nerves are isolated and tightly ligated with 6-0 silk thread. The same procedure is done on the right side as a control, except no ligation of the spinal nerves is performed.
A complete hemostasis is confirmed, then the wounds are sutured. A small amount of antibiotic ointment is applied to the incised area, and the rat is transferred to the recovery plastic cage under a regulated heat-temperature lamp. […]
Tactile allodynia is measured prior to and 30 minutes after drug administration using von Frey hairs that are a series of fine hairs with incremental differences in stiffness. […] The applied force has been calculated to range from 0.41 to 15.1 grams. […]

In series [2] the test system is African Green monkeys made glaucomatous. Briefly: Intraocular pressure in glaucomatous African Green monkeys after oral dosing. The series is classed as in vivo, African Green monkey. As to the method: African Green monkeys are made glaucomatous and divided into three groups. Ocular hypertension is measured before the administration of any drug, then one of each group of animals is given an oral dose of either a) glucose (negative control); b) a formulation of FORMULA 2 at a dosage of either 2 mg/kg or 7 mg/kg, or c) Diamox® (acetazolamide; a carbonic anhydrase inhibitor used for treatment of glaucoma) (positive control) at a concentration of 20 mg/kg. Intraocular pressure is measured at 0, 6, 12, and 24 hours following administration of each formulation.

For series [3], the system named is allodynia resulting from shingles. Briefly: Treatment of allodynia resulting from shingles in a patient. The series is classed as in vivo, human. The note with it: oral capsule as needed, after two days' treatment, one patient. The source says:
A person in generally good physical condition suffers from serious pain to their upper body due caused by contact of their skin with their clothing. The patient is unable to wear clothing on their upper body without severe pain. […] The patient is given a therapeutically effective oral dose of FORMULA 3 in capsule form as needed for the treatment of pain. […] Same facts as in Example 5, except the patient is given a therapeutically effective oral dose of FORMULA 2 in capsule form as needed for the treatment of pain.

A further series concerns visceral pain. Briefly: Treatment of visceral pain in a colon cancer patient. It is filed as in vivo, human. As to conditions: intravenous infusion twice daily, after two days, one patient. The source says: A patient suffering from colon cancer and undergoing chemotherapy experiences severe visceral pain associated with this primary condition. Treatment of this pain with opiates has been ineffective to provide substantial relief. The patient is given a therapeutic amount of FORMULA 3 by intravenous infusion in a pharmaceutically acceptable vehicle. The treatment is given twice daily. […] Under the same facts as Example 7, except the patient is given FORMULA 2 instead of FORMULA 3.

For a further series, the system named is male Sprague-Dawley rats. Briefly: Rat locomotor model to assess sedation (exploratory activity). The note with it: 30 minutes after injection, versus vehicle controls. It is filed as in vivo. As to the method: as §1
To test sedation, six male Sprague-Dawley rats were given up to 3 mg/kg of each compound in a saline or DMSO vehicle by intraperitoneal injection (i.p.). Sedation was graded 30 minutes following administration of the drug by monitoring locomotor skills as follows.
The Sprague-Dawley rats are weighed and 1 ml/kg body weight of an appropriate concentration (ie. 3 mg/ml for a final dose of 3 mg/kg) drug solution is injected intraperitoneally. FORMULA 3 is formulated in approximately 10% DMSO and FORMULA 2 and FORMULA 4 are formulated in 50% DMSO. The results are compared to 29 historical controls that were injected with 1 ml/kg saline or 50% DMSO. Rat activity is then determined 30 minutes after injection of the drug solution. Rats are placed in a dark covered chamber and a digicom analyzer (Omnitech Electronic) quantitates their exploratory behavior for a five-minute period. The machine records each time the rat interrupts an array of 32 photoelectric beams in the X and Y orientation.
FORMULA 2 and FORMULA 3 were tested at 1 mg/kg and FORMULA 4 was tested at 3 mg/kg. Thus, the compounds are not sedating.

Take `OCCNC(=S)NCc1ccc(F)cc1` [AGN196204]: the “Reduction of the response to tactile stimuli that indicate tactile allodynia (analgesic in chronic pain model)” value (shortened to “Reduction of the response”) in series [1] is “able to reduce the response to the tactile stimuli”.

Regarding `CC(=O)Nc1nnc(S(N)(=O)=O)s1` [Diamox ®, acetazolamide, reference compound], the “Change in Intraocular Pressure (%)” value in series [2] (oral 20 mg/kg (positive control), 0 hours) was 0%; in series [2] (oral 20 mg/kg (positive control), 6 hours) it was −38%; in series [2] (oral 20 mg/kg (positive control), 12 hours), −41%; in series [2] (oral 20 mg/kg (positive control), 24 hours), −18%.

Turning to `OCCNC(=S)NCc1cccc(Cl)c1F` [FORMULA 2, 1-(3-chloro-2-fluorobenzyl)-3-(2-hydroxyethyl)-thiourea], the “Patient-reported allodynia resulting from shingles” value in series [3] is recorded as “markedly reduced”. In addition, the “Change in Intraocular Pressure (%)” value in series [2] (oral 2 mg/kg, 0 hours) is recorded as 0%; in series [2] (oral 2 mg/kg, 6 hours), −18%; in series [2] (oral 2 mg/kg, 12 hours) it was −32%; in series [2] (oral 2 mg/kg, 24 hours), −3%; in series [2] (oral 7 mg/kg, 0 hours), 0%; in series [2] (oral 7 mg/kg, 6 hours), −22%. The “Change in Intraocular Pressure (%)” value in series [2] (oral 7 mg/kg, 12 hours) is recorded as −26%; in series [2] (oral 7 mg/kg, 24 hours), −15%. For the same compound, the “Reduction of the response” value in series [1] is listed as “able to reduce the response to the tactile stimuli”. Besides, the Patient-reported visceral pain result in the series with visceral pain is “significant alleviation”. For the same compound, in the series with male Sprague-Dawley rats (1 mg/kg i.p.), the “Sedation: reduction in the exploratory activity of the rats” value (“Sedation: reduction” for short) is reported as “not sedating”.

In the case of `OCCNC(=S)NCc1ccc(F)cc1` [FORMULA 3], in series [3], the “Patient-reported allodynia resulting from shingles” value is “markedly reduced”. Besides, the “Reduction of the response” value in series [1] is given as “analgesic in a model of chronic pain”. In addition, the Patient-reported visceral pain result in the series on visceral pain is listed as “significant alleviation”. Further, in the series with male Sprague-Dawley rats (1 mg/kg i.p.), the “Sedation: reduction” value was “not sedating”.

Turning to `OCCNC(=S)NCc1ccccc1F` [FORMULA 4, reference compound], the “Analgesic activity (tactile allodynia)” value in series [1] (i.p. doses up to 3 mg/kg) is recorded as “no analgesic activity”. The “Sedation: reduction” value in the series on male Sprague-Dawley rats (3 mg/kg i.p.) was “not sedating”.
